This is an account of results in patent publication US11484607B2, “PSMA-targeted NIR dyes and their uses” (On Target Laboratories, LLC, priority 2015, dated 2022).

Usually Kd stands for the constant that tells how readily two partners part at equilibrium. High values mean lower affinity, low ones higher affinity.

For the assay, the target named is T1, PSMA (Homo sapiens, UniProt Q04609).
T1 construct: host or cells: 22Rv1 human prostate cancer cells
Briefly: Relative binding affinity of DUPA-NIR conjugates with respect to DUPA-FITC on 22Rv1 cells, flow cytometry. The following applies: for Kd: 1 h at 37° C., 100 nM DUPA-FITC; for affinity for PSMA (in words): in vitro binding affinity data. As to the method:
FIG. 3—Relative binding affinities of DUPA-NIR conjugates 1-9 with respect to DUPA-FITC (14). PSMA-positive 22Rv1 human prostate cancer cells were incubated for 1 h at 37° C. in the presence of 100 nM DUPA-FITC with increasing concentrations of DUPA-NIR conjugates. […] Cell bound fluorescence was assayed as using flow cytometry.
FIG. 6—Relative binding affinities of DUPA-NIR conjugates with aromatic amino acids linkers with respect to DUPA-FITC (14). PSMA-positive 22Rv1 human prostate cancer cells were incubated for 1 h at 37° C. in the presence of 100 nM DUPA-FITC with increasing concentrations of DUPA-NIR conjugates. […] Cell bound fluorescence was assayed as using flow cytometry.
FIG. 3 Relative binding affinities of DUPA-NIR conjugates 1-9 with respect to DUPA-FITC (14). PSMA-positive 22Rv1 human prostate cancer cells were incubated for 1 h at 37° C. in the presence of 100 nM DUPA-FITC with increasing concentrations of DUPA-NIR conjugates. […] Cell bound fluorescence was assayed as using flow cytometry.
in vitro studies. […] PSMA-positive 22Rv1 human prostate cancer cells were incubated for 1 h at 37° C. in the presence of 100 nM DUPA-FITC with increasing concentrations of DUPA-NIR conjugates. […] Cell bound fluorescence was assayed as using flow cytometry.
PSMA-positive 22Rv1 human prostate cancer cells were incubated for 1 h at 37° C. in the presence of 100 nM DUPA-FITC with increasing concentrations of DUPA-NIR conjugates. […] Cell bound fluorescence was assayed as using flow cytometry.
FIG. 24: Relative binding affinities of DUPA-NIR conjugates with respect to DUPA-FITC (14). PSMA-positive 22Rv1 human prostate cancer cells were incubated for 1 h at 37° C. in the presence of 100 nM DUPA-FITC with increasing concentrations of DUPA-NIR conjugates. […] Cell bound fluorescence was assayed as using flow cytometry.
PSMA-positive 22Rv1 human prostate cancer cells were incubated for 1 h at 37° C. in the presence of 100 nM DUPA-FITC with increasing concentrations of DUPA-NIR conjugates. […] Cell bound fluorescence was assayed as using flow cytometry
Cancer cells were incubated for 1 h at 37° C. in the presence of 100 nM DUPA-FITC with increasing concentrations of compound 15. […] Cell bound fluorescence was assayed as using flow cytometry.
On the technique in general: In flow cytometry, cells or beads pass a laser one at a time.

Where [1] appears, read: conjugates with variable length spacers.
[2] abbreviates: conjugates with aromatic linkers.

T1 sequence (Q04609 whole entry): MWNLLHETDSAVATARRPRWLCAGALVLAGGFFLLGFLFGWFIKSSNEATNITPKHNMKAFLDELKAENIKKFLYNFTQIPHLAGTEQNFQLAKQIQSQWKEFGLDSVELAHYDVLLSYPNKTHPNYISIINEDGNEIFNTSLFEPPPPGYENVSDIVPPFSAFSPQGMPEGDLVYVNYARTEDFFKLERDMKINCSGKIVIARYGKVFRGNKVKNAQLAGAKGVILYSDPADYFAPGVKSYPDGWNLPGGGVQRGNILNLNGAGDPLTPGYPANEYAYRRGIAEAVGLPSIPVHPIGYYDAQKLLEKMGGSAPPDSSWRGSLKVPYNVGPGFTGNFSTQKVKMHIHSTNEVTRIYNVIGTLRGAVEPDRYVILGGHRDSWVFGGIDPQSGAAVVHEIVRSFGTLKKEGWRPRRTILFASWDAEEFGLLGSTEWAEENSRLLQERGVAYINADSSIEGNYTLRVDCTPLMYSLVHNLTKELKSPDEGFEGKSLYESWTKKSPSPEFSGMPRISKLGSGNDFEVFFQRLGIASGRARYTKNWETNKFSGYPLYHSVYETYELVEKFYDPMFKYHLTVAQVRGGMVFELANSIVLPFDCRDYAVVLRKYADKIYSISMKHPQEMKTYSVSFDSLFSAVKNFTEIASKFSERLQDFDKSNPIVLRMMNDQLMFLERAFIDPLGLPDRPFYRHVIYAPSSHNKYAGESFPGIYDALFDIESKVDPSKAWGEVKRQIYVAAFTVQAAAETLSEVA

For `CC1(C)C(/C=C/C2=C(Oc3ccc(C[C@H](NC(=O)CC[C@H](NC(=O)N[C@@H](CCC(=O)O)C(=O)O)C(=O)O)C(=O)O)cc3)C(=C/C=C3/N(CCCCS(=O)(=O)O)c4ccc(S(=O)(=O)O)cc4C3(C)C)/CCC2)=[N+](CCCCS(=O)(=O)[O-])c2ccc(S(=O)(=O)O)cc21` [Compound 1], the “affinity for PSMA (in words)” value is “low affinity”. This molecule yielded a Kd under setting [1] of 142 nM.

Consider `CC1(C)C(/C=C/C2=C(Oc3ccc(CCNC(=O)CC[C@H](NC(=O)N[C@@H](CCC(=O)O)C(=O)O)C(=O)O)cc3)C(=C/C=C3/N(CCCCS(=O)(=O)O)c4ccc(S(=O)(=O)O)cc4C3(C)C)/CCC2)=[N+](CCCCS(=O)(=O)[O-])c2ccc(S(=O)(=O)O)cc21` [Compound 2], for which the “affinity for PSMA (in words)” value was “low affinity”. Besides, the dissociation constant (Kd) under setting [1] was 113 nM.

Turning to `CC1(C)C(/C=C/C2=C(Oc3ccc(C[C@H](NC(=O)C[C@H](NC(=O)CC[C@H](NC(=O)N[C@@H](CCC(=O)O)C(=O)O)C(=O)O)C(=O)O)C(=O)O)cc3)C(=C/C=C3/N(CCCCS(=O)(=O)O)c4ccc(S(=O)(=O)O)cc4C3(C)C)/CCC2)=[N+](CCCCS(=O)(=O)[O-])c2ccc(S(=O)(=O)O)cc21` [Compound 3], the “affinity for PSMA (in words)” value was “very high affinity”. Under setting [1], this molecule showed a Kd of 9.71 nM.

`CC1(C)C(/C=C/C2=C(Oc3ccc(C[C@H](NC(=O)CCCCCCCNC(=O)[C@H](Cc4ccccc4)NC(=O)CC[C@H](NC(=O)N[C@@H](CCC(=O)O)C(=O)O)C(=O)O)C(=O)O)cc3)C(=C/C=C3/N(CCCCS(=O)(=O)O)c4ccc(S(=O)(=O)O)cc4C3(C)C)/CCC2)=[N+](CCCCS(=O)(=O)[O-])c2ccc(S(=O)(=O)O)cc21` [Compound 5]: the “affinity for PSMA (in words)” value is “very high affinity”. Under setting [1], the Kd stood at 12.2 nM.

Consider `CC1(C)C(/C=C/C2=C(Oc3ccc(C[C@H](NC(=O)[C@H](Cc4ccccc4)NC(=O)[C@H](Cc4ccccc4)NC(=O)CCCCCCCNC(=O)C[C@H](NC(=O)CC[C@H](NC(=O)N[C@@H](CCC(=O)O)C(=O)O)C(=O)O)C(=O)O)C(=O)O)cc3)C(=C/C=C3/N(CCCCS(=O)(=O)O)c4ccc(S(=O)(=O)O)cc4C3(C)C)/CCC2)=[N+](CCCCS(=O)(=O)[O-])c2ccc(S(=O)(=O)O)cc21` [Compound 8], for which, under setting [1], the equilibrium dissociation constant (Kd) is 23.2 nM.

`CC1(C)C(/C=C/C2=C(Oc3ccc(C[C@H](NC(=O)CCCCCCCNC(=O)CCCCCCCNC(=O)CC[C@H](NC(=O)N[C@@H](CCC(=O)O)C(=O)O)C(=O)O)C(=O)O)cc3)C(=C/C=C3/N(CCCCS(=O)(=O)O)c4ccc(S(=O)(=O)O)cc4C3(C)C)/CCC2)=[N+](CCCCS(=O)(=O)[O-])c2ccc(S(=O)(=O)O)cc21` [Compound 9] registered a Kd under setting [1] of 17.2 nM.

`CC1(C)C(/C=C/C2=C(SC[C@H](NC(=O)[C@H](Cc3ccccc3)NC(=O)[C@H](Cc3ccccc3)NC(=O)CCCCCCCNC(=O)CC[C@H](NC(=O)N[C@@H](CCC(=O)O)C(=O)O)C(=O)O)C(=O)O)C(=C/C=C3/N(CCCCS(=O)(=O)O)c4ccc(S(=O)(=O)O)cc4C3(C)C)/CCC2)=[N+](CCCCS(=O)(=O)[O-])c2ccc(S(=O)(=O)O)cc21` [Compound 27] came in with a Kd under setting [2] of 22.2 nM.

Under setting [2], `CC1(C)C(/C=C/C2=C(Oc3ccc(C[C@H](NC(=O)[C@H](Cc4c[nH]cn4)NC(=O)CCCCCCCNC(=O)CC[C@H](NC(=O)N[C@@H](CCC(=O)O)C(=O)O)C(=O)O)C(=O)O)cc3)C(=C/C=C3/N(CCCCS(=O)(=O)O)c4ccc(S(=O)(=O)O)cc4C3(C)C)/CCC2)=[N+](CCCCS(=O)(=O)[O-])c2ccc(S(=O)(=O)O)cc21` [Compound 32] registered an equilibrium dissociation constant (Kd) of 32 nM.

Turning to `CC1(C)C(/C=C/C2=C(Oc3ccc(C[C@H](NC(=O)[C@H](Cc4c[nH]c5ccccc45)NC(=O)CCCCCCCNC(=O)CC[C@H](NC(=O)N[C@@H](CCC(=O)O)C(=O)O)C(=O)O)C(=O)O)cc3)C(=C/C=C3/N(CCCCS(=O)(=O)O)c4ccc(S(=O)(=O)O)cc4C3(C)C)/CCC2)=[N+](CCCCS(=O)(=O)[O-])c2ccc(S(=O)(=O)O)cc21` [Compound 33], the dissociation constant (Kd) under setting [2] stood at 16 nM.
